Data on 13 molecules can be found in US20150157739A1, “Imidazo[2,1]thiazol-3-one derivatives” (Hoffmann-La Roche Inc., priority 2012, published 2015).

Each structure is given as a SMILES string.

Assay [1] addresses T1, aggregated recombinant human-microtubule associated protein Tau (Homo sapiens, UniProt P10636).
T1 construct: Recombinant human-microtubule associated protein Tau purified from E. coli is aggregated at a concentration of 5 μM with Arachidonic Acid (100 μM) in Tris 10 mM pH8, 24 h at 37° C
Description: Thiazin-red R displacement fluorescence assay on aggregated Tau. The settings on record: displacement of Thiazin-red R from aggregated Tau; compound 0.3 nM to 10000 nM; 30 min room temperature; Ex 531 nm/Em 595 nm. The class given is binding. On the procedure: (§1) Assay for Determination of […] for Tau and A-Beta
(§2) Recombinant human-microtubule associated protein Tau purified from E. coli is aggregated at a concentration of 5 μM with Arachidonic Acid (100 μM) in Tris 10 mM pH8, 24 h at 37° C. Synthetic Aβ40 is aggregated at a concentration of 50 μM with Arachidonic Acid (100 μM) in Tris 10 mM pH8, for three days at 37° C., under shaking at 150 rpm.
(§3) A saturation analysis of Thiazin-red R to the aggregated proteins is done to determine the affinity (Kd) of the Thiazin-red R to the aggregated protein.
(§4) Thiazin-red R will be added at the concentration corresponding to the Kd to the respective aggregated protein binding site, to induce a fluorescent signal that can be inhibited by the addition of a displacer compound.
(§5) In parallel, auto fluorescence of the compound is measured together with the aggregated proteins, but without Thiazin-red R. As negative control, ligand and aggregated protein is used and as positive control, Thiazin-red R, reference compound with known activity and aggregated protein is used.
(§6) Assay is performed in Perkin Elmer OptiPlate 384, black, 45 ul assay volume, assay buffer is DPBS no CaCl2 no MgCl2 (GIBCO N. 14020). Tested compounds are diluted in DMSO and 2 μl is added to the assay ([…]). Assay is started by the addition of the aggregated protein (competitive condition). Plates are shortly shacked (1 min with Sterico variomag teleshake) and incubated for 30 min at room temperature. Measurement are done with En:Vision (Perkin Elmer), at Excitation 531 nm/Emission 595 nm.

Assay [2] addresses T2, aggregated synthetic Aβ40 (Homo sapiens, UniProt P05067).
T2 construct: Synthetic Aβ40 is aggregated at a concentration of 50 μM
Nature of the assay: Thiazin-red R displacement fluorescence assay on aggregated A-beta. The class given is binding. The settings on record: displacement of Thiazin-red R from aggregated Aβ40; compound 0.3 nM to 10000 nM; 30 min room temperature; Ex 531 nm/Em 595 nm. On the procedure: as §1, §2, §3, §4, §5, §6

T1 sequence (P10636 whole entry): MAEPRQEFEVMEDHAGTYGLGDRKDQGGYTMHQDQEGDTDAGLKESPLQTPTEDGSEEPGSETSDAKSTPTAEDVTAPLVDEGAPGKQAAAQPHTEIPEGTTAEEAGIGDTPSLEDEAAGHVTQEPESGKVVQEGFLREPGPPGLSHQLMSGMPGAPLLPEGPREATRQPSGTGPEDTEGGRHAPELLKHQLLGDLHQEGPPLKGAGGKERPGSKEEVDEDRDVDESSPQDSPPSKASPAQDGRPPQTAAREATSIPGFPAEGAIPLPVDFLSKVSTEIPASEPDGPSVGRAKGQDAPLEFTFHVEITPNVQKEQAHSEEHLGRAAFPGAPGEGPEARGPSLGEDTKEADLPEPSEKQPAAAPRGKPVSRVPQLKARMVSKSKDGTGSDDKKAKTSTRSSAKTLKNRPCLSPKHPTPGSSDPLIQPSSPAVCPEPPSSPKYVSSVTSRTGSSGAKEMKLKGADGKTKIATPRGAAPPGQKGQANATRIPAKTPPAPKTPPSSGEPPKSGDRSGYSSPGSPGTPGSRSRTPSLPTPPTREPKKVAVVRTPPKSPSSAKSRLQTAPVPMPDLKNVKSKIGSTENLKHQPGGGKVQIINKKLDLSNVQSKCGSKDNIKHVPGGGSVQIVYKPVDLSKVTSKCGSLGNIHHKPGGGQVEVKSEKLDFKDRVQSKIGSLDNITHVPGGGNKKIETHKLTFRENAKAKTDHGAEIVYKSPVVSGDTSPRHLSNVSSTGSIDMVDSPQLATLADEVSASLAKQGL
T2 sequence (P05067 672-711 limits assumed): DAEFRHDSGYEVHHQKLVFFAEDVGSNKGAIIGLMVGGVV

Consider `COc1cc(/C=c2\sc3nc(-c4ccc(C#N)cc4)cn3c2=O)cc(Cl)c1O` [Example 87, 4-{2-[1-(3-Chloro-4-hydroxy-5-methoxy-phenyl)-meth-(Z)-ylidene]-3-oxo-2,3-dihydro-imidazo[2,1-b]thiazol-6-yl}-benzonitrile], for which the IC50 in assay [1] was determined as 0.3 nM; in assay [2], 6 nM.
`COc1cc(/C=c2\sc3nc(-c4ccc(C(=O)N(C)CCF)cc4)cn3c2=O)cc(Cl)c1O` [Example 125, 4-{2-[1-(3-Chloro-4-hydroxy-5-methoxy-phenyl)-meth-(Z)-ylidene]-3-oxo-2,3-dihydro-imidazo[2,1-b]thiazol-6-yl}-N-(2-fluoro-ethyl)-N-methyl-benzamide]: the IC50 in assay [1] was found to be 17 nM; in assay [2], 621 nM.
As to `COc1cc(/C=c2\sc3nc(-c4cc(C)nc(C)c4)cn3c2=O)cc(F)c1O` [Example 64, 2-[1-(3-Fluoro-4-hydroxy-5-methoxy-phenyl)-meth-(Z)-ylidene]-6-(2,6-dimethyl-pyridin-4-yl)-imidazo[2,1-b]thiazol-3-one], the IC50 in assay [1] came out at 32 nM; in assay [2], 406 nM.
In the case of `COc1cc(/C=c2\sc3nc(-c4ccccc4F)cn3c2=O)cc(Cl)c1O` [Example 53, 2-[1-(3-Chloro-4-hydroxy-5-methoxy-phenyl)-meth-(Z)-ylidene]-6-(2-fluoro-phenyl)-imidazo[2,1-b]thiazol-3-one], the IC50 is 16 nM in assay [1] and 5650 nM in assay [2].
In the case of `CCCOc1cc(/C=c2\sc3nc(-c4ccsc4)cn3c2=O)cc(Cl)c1O` [Example 131, 2-[1-(3-Chloro-4-hydroxy-5-propoxy-phenyl)-meth-(Z)-ylidene]-6-thiophen-3-yl-imidazo[2,1-b]thiazol-3-one], the IC50 stood at 26 nM in assay [1] and 979 nM in assay [2].
For `COc1cc(/C=c2\sc3nc(-c4ccc(C(F)(F)F)c(F)c4)cn3c2=O)cc(OC)c1O` [Example 29], in that order: 11 nM and 43 nM.
The corresponding values for `COc1cc(/C=c2\sc3nc(-c4ccc5c(c4)OCCO5)cn3c2=O)cc(Cl)c1O` [Example 100, 2-[1-(3-Chloro-4-hydroxy-5-methoxy-phenyl)-meth-(Z)-ylidene]-6-(2,3-dihydro-benzo[1,4]dioxin-6-yl)-imidazo[2,1-b]thiazol-3-one] are 9 nM and 1060 nM.
`O=c1/c(=C/c2cc(F)c(O)c(OCCCF)c2)sc2nc(-c3ccncc3)cn12` [Example 124, 2-[1-(3-Fluoro-5-(3-fluoropropoxy)-4-hydroxy-phenyl)-meth-(Z)-ylidene]-6-pyridin-4-yl-imidazo[2,1-b]thiazol-3-one]: the IC50 in assay [1] amounted to 17 nM; in assay [2], 1230 nM.
In the case of `COc1cc(/C=c2\sc3nc(-c4cccnc4)cn3c2=O)cc(F)c1O` [Example 71, 2-[1-(3-Fluoro-4-hydroxy-5-methoxy-phenyl)-meth-(Z)-ylidene]-6-(pyridin-3-yl)-imidazo[2,1-b]thiazol-3-one], the IC50 in assay [1] amounted to 20 nM; in assay [2] it was 238 nM.
In the case of `COc1cc(/C=c2\sc3nc(-c4ccc(C(=O)N(C)CCCF)cc4)cn3c2=O)cc(F)c1O` [Example 147], the IC50 in assay [1] came out at 41 nM; in assay [2], 448 nM.
On to `CCCOc1cc(/C=c2\sc3nc(-c4ccncc4)cn3c2=O)cc(Cl)c1O` [Example 111, 2-[1-(3-Chloro-4-hydroxy-5-propoxy-phenyl)-meth-(Z)-ylidene]-6-pyridin-4-yl-imidazo[2,1-b]thiazol-3-one], for which the IC50 in assay [1] was 17 nM; in assay [2], 1450 nM.
The corresponding values for `COc1cc(/C=c2\sc3nc(-c4ccncc4)cn3c2=O)cc(Br)c1O` [Example 70, 2-[1-(3-Bromo-4-hydroxy-5-methoxy-phenyl)-meth-(Z)-ylidene]-6-(pyridin-4-yl)-imidazo[2,1-b]thiazol-3-one] are 1.3 nM and 103 nM.
For the molecule `COc1cc(/C=c2\sc3nc(-c4ccc(C(=O)NCCCF)cc4)cn3c2=O)cc(Cl)c1O` (single isomer, unassigned) [Example 133], the IC50 came to 2 nM in assay [1] and 86 nM in assay [2].
